Reference: ChEMBL document CHEMBL4834480, “Discovery of 3,5-Dimethyl-4-Sulfonyl-1H-Pyrrole-Based Myeloid Cell Leukemia 1 Inhibitors with High Affinity, Selectivity, and Oral Bioavailability” (J Med Chem, 2021)
Converted amounts (≈) assume the structure as drawn. The source made the active and inactive calls. The rule behind the calls is not given here.

Experiments:
[1] = Water solubility of the compound; format: physicochemical
NCI-H929 [2] = experiment: Antiproliferative activity against human NCI-H929 cells assessed as decrease in cell viability measured after 72 hrs by MTT assay; format: functional, cell-based; details: NCI-H929, 72 h
MV4-11 [3] = experiment: Antiproliferative activity against human MV4-11 cells assessed as decrease in cell viability measured after 72 hrs by MTT assay; format: functional, cell-based; details: MV4-11, 72 h
SK-BR-3 = experiment: Antiproliferative activity against human SK-BR-3 cells assessed as decrease in cell viability measured after 72 hrs by MTT assay; format: functional, cell-based; details: SK-BR-3, 72 h
NCI-H23 = experiment: Antiproliferative activity against human NCI-H23 cells assessed as decrease in cell viability measured after 72 hrs by MTT assay; format: functional, cell-based; details: NCI-H23, 72 h
K562 [4] = experiment: Antiproliferative activity against human K562 cells assessed as decrease in cell viability measured after 72 hrs by MTT assay; format: functional, cell-based; details: K562, 72 h
[5] = biological target: Induced myeloid leukemia cell differentiation protein Mcl-1 (Homo sapiens, UniProt Q07820); experiment: Displacement of BAK from MCL1 in human NCI-H929 cells after 4 hrs by co-immunoprecipitation assay; format: cell-based; details: dose 0.1-0.5 µM
NCI-H929 [6] = experiment: Induction of apoptosis in human NCI-H929 cells assessed as upregulation of cleaved PARP measured after 48 hrs by Western blot analysis; format: functional, cell-based; details: dose microM <=5, time 48.0 hrs
K562 [7] = experiment: Induction of apoptosis in human K562 cells assessed as activation of caspase 3 up to 5 uM after 4 hrs by luminescence based microplate reader assay; format: functional, cell-based; details: dose microM <=5, time 4.0 hrs
CYP1A2 = biological target: T1, CYP1A2 (Homo sapiens, UniProt P05177); experiment: Inhibition of CYP1A2 (unknown origin) at 10 uM preincubated for 5 min followed by NADPH addition and measured after 20 mins by LC-MS/MS analysis relative to control; format: ADME; details: time 25 min
T1 sequence (P05177 whole entry): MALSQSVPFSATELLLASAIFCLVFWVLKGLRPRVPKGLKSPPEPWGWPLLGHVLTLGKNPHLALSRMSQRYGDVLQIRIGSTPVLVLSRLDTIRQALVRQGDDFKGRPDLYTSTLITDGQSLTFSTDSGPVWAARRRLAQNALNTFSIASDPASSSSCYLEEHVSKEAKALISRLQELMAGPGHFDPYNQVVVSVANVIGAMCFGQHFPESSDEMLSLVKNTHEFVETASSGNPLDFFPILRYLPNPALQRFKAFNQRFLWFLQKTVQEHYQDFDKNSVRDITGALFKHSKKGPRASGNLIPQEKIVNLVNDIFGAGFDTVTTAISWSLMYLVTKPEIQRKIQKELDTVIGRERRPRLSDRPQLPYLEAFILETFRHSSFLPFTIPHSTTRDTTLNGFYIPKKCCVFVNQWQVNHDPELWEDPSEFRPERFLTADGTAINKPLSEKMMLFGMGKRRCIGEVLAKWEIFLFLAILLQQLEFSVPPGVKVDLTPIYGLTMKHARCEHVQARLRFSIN

CYP2C19 = CYP2C19 (Homo sapiens, UniProt P33261); experiment: Inhibition of CYP2C19 (unknown origin) at 10 uM preincubated for 5 min followed by NADPH addition and measured after 20 mins by LC-MS/MS analysis relative to control; format: ADME; details: time 25 min
CYP3A4 = CYP3A4 (Homo sapiens, UniProt P08684); experiment: Inhibition of CYP3A4 (unknown origin) at 10 uM preincubated for 5 min followed by NADPH addition and measured after 20 mins by LC-MS/MS analysis relative to control; format: ADME; details: time 25 min
[8] = Stability of the compound in simulated intestinal fluid assessed as parent compound remaining measured after 6 hrs; format: ADME; details: read-out: Stabilty
[9] = Stability of the compound in mouse plasma assessed as parent compound remaining measured after 2 hrs by LC-MS/MS analysis; format: ADME, cell-free; details: read-out: Stabilty
[10] = Stability of the compound in human plasma assessed as parent compound remaining measured after 2 hrs by LC-MS/MS analysis; format: ADME, cell-free; details: read-out: Stabilty
[11] = Intrinsic clearance in rat liver microsomes; format: ADME, Microsome; details: read-out: CLH
[12] = Half life in human liver microsomes; format: ADME, Microsome
P-gp = P-gp (Homo sapiens, UniProt P08183); experiment: Substrate activity at P-gp in human Caco-2 cells assessed as permeability across apical to basolateral membrane by LC-MS/MS analysis; format: ADME, cell-based; details: read-out: permeability
[13] = Apparent volume of distribution in Sprague-Dawley rat at 3 mg/kg, iv measured up to 24 hrs by LC-MS/MS analysis; format: ADME, organism-based; details: in vivo, read-out: Vz
[14] = AUCt in Sprague-Dawley rat at 3 mg/kg, iv measured up to 24 hrs by LC-MS/MS analysis; format: ADME, organism-based; set-up: route intravenous, dose 3 mg/kg, time <=24; details: in vivo
[15] = Half life in Sprague-Dawley rat at 10 mg/kg, po measured up to 24 hrs by LC-MS/MS analysis; format: ADME, organism-based; details: in vivo
[16] = Apparent volume of distribution in Sprague-Dawley rat at 10 mg/kg, po measured up to 24 hrs by LC-MS/MS analysis; format: ADME, organism-based; details: in vivo
MV4-11 [17] = experiment: Antitumor activity against human MV4-11 cells xenografted in BALB/c nude mouse assessed as tumor growth inhibition by measuring T/C ratio at 20 mg/kg, ip administered every two days for 14 days relative to control; format: functional; details: time 14 day
[18] = Toxicity in BALB/c nude mouse xenografted with human MV4-11 cells assessed as effect on body weight at 20 mg/kg, ip administered every two days for 14 days; format: organism-based; details: in vivo, 336 h, time 14 day
[19] = Toxicity in BALB/c nude mouse xenografted with human MV4-11 cells assessed as effect on heart weight at 20 mg/kg, ip administered every two days for 14 days; format: organism-based; details: in vivo, 336 h, time 14 day
[20] = Toxicity in BALB/c nude mouse xenografted with human MV4-11 cells assessed as effect on liver weight at 20 mg/kg, ip administered every two days for 14 days; format: organism-based; details: in vivo, 336 h, time 14 day
MV4-11 [21] = experiment: Antitumor activity against human MV4-11 cells xenografted in BALB/c nude mouse assessed as induction of tumor necrosis at 20 mg/kg, ip administered every two days for 14 days by hematoxyin-eosin staining based analysis; format: functional, organism-based; details: time 14.0 day
[22] = Toxicity in BALB/c nude mouse xenografted with human MV4-11 cells assessed as effect on heart at 60 mg/kg, po administered every two days for 14 days by hematoxyin-eosin staining based analysis; format: organism-based; details: in vivo, 336 h, time 14 day
[23] = Toxicity in BALB/c nude mouse xenografted with human MV4-11 cells assessed as effect on liver at 60 mg/kg, po administered every two days for 14 days by hematoxyin-eosin staining based analysis; format: organism-based; details: in vivo, 336 h, time 14 day
[24] = Toxicity in BALB/c nude mouse xenografted with human MV4-11 cells assessed as effect on heart at 20 mg/kg, ip administered every two days for 14 days by hematoxyin-eosin staining based analysis; format: organism-based; details: in vivo, 336 h, time 14 day
[25] = Toxicity in BALB/c nude mouse xenografted with human MV4-11 cells assessed as effect on liver at 20 mg/kg, ip administered every two days for 14 days by hematoxyin-eosin staining based analysis; format: organism-based; details: in vivo, 336 h, time 14 day
[26] = Toxicity in BALB/c nude mouse xenografted with human MV4-11 cells assessed as effect on kidney at 20 mg/kg, ip administered every two days for 14 days by hematoxyin-eosin staining based analysis; format: organism-based; details: in vivo, 336 h, time 14 day

Sequence of P-gp (P08183 whole entry): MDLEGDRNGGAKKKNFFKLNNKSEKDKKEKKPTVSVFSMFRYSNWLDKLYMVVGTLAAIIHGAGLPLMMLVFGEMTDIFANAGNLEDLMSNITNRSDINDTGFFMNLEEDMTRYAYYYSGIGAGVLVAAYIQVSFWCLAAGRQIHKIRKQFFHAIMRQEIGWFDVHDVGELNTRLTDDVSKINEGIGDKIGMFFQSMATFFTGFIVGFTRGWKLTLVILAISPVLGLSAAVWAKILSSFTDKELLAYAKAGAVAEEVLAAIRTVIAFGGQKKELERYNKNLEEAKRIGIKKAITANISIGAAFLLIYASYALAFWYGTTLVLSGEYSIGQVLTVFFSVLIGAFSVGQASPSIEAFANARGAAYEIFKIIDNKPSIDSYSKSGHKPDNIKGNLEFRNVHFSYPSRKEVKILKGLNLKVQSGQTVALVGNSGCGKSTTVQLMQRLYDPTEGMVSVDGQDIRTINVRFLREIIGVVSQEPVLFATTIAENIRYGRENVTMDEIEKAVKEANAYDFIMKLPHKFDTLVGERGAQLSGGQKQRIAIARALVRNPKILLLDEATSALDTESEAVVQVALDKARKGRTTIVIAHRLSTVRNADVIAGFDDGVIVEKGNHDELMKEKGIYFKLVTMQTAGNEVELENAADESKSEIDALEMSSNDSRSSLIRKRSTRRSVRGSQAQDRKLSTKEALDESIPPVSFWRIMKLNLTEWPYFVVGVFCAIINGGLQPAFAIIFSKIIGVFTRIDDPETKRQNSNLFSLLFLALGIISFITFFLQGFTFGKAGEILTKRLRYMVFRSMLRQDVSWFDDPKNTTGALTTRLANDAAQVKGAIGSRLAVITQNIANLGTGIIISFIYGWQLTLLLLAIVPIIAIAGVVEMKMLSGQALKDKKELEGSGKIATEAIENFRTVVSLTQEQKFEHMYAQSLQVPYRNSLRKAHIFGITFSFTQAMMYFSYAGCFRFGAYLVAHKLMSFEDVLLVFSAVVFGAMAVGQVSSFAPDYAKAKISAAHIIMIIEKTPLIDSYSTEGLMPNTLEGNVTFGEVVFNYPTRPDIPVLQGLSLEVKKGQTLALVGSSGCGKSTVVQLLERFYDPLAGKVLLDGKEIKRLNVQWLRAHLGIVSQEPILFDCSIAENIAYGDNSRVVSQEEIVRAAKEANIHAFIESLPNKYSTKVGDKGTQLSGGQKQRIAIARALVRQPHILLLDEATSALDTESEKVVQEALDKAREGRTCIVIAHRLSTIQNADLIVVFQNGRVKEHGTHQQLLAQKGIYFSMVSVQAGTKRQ
Sequence of CYP3A4 (P08684 whole entry): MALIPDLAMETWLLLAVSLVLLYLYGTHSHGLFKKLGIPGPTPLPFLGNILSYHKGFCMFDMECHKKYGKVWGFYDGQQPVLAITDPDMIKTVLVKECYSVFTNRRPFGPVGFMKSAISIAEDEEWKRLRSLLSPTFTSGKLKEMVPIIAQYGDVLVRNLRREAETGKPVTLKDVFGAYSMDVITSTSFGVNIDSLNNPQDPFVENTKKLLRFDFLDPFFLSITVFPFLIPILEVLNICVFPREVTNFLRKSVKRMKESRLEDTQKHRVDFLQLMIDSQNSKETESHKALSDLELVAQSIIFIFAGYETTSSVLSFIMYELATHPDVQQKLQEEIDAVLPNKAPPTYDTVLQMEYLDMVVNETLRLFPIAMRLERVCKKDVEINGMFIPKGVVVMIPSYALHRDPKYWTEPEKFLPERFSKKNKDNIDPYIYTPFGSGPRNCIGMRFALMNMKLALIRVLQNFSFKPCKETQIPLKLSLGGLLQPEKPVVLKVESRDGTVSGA
Sequence of CYP2C19 (P33261 whole entry): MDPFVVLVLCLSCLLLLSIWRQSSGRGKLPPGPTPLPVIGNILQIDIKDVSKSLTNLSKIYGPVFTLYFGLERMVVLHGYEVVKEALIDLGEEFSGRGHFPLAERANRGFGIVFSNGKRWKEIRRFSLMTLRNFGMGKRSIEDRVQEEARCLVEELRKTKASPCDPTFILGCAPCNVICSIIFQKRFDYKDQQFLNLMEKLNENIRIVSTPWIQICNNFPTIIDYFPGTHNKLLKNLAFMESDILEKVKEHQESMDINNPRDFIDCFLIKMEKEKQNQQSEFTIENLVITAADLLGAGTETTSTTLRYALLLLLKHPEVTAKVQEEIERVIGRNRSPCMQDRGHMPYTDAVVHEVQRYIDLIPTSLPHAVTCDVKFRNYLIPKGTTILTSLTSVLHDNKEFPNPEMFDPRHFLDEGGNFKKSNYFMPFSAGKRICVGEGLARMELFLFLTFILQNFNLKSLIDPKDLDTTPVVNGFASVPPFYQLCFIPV
Sequence of Induced myeloid leukemia cell differentiation protein Mcl-1 (Q07820 whole entry): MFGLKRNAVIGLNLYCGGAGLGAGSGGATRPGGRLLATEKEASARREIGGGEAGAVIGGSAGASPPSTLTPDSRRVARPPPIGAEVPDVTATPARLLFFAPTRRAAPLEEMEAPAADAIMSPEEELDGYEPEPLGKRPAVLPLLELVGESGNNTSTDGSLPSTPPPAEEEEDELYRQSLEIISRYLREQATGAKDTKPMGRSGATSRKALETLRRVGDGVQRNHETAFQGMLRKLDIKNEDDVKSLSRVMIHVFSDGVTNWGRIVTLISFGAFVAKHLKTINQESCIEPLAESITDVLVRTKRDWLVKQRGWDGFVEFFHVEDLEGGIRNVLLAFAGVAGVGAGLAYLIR

Work on `CC(=O)c1ccc(S(=O)(=O)c2c(C)c(C(=O)O)n(CCCOc3cc(C)c(Cl)c(C)c3)c2C)cc1` yielded a solubility [1] of 32.3 µg/mL (≈ 62.4 µM), an IC50 (NCI-H929 [2]) of 360 nM and an IC50 (MV4-11 [3]) of 700 nM. It also gave an IC50 (SK-BR-3) of 2840 nM, an IC50 (NCI-H23) of 3.02 µM and an IC50 (K562 [4]) of over 30 µM. The inhibition [5] was “Dose-Dependent Effect”, the Activity (NCI-H929 [6]) was “Dose-Dependent Effect” and the Activity (K562 [7]) was “inactive”. It also gave an inhibition at 20 min, 10 µM (CYP1A2) of 19.3%, an inhibition at 20 min, 10 µM (CYP2C19) of 2.85% and an inhibition at 20 min, 10 µM (CYP3A4) of 29.4%. It also gave a remaining at 6 h [8] of 85.2%, a remaining at 2 h [9] of 100% and a remaining at 2 h [10] of 96.5%. It also gave a microsomal CLint [11] of 31.4 µL/min/mg, a half-life [12] of 49.8 min and a Papp A→B (P-gp) of 3.62 ×10⁻⁶ cm/s. For the same molecule, the Vd [13] was 3.08 L/kg, the AUC(0-t) at 24 h [14] was 3290 ng·h/mL and the half-life [15] was 126 min. The Vz [16] was 6654.75 mL/kg, the T/C (MV4-11 [17]) was 5.52% and the Activity [18] was “Non-Toxic”. The Activity [19] was “Non-Toxic”, the Activity [20] was “Non-Toxic” and the Activity (MV4-11 [21]) was “Active”. The Activity [22] was “Non-Toxic”, the Activity [23] was “Non-Toxic” and the Activity [24] was “Non-Toxic”. The Activity [25] was “Non-Toxic” and the Activity [26] was “Non-Toxic”.
